In PMC4890880 (ACS infectious diseases, 2016):
Where two headings read alike, the source gives them in different places.

Columns and labels:
[1] = system: Plasmodium berghei (Pb-Luc) exoerythrocytic-stage parasites; settings: for normalised signal at concentration 10 (first series): concentration 10, first series of dose columns; for normalised signal at concentration 10 (second series): concentration 10, second series of dose columns; for IC50: read-out: PbLuc_IC50
HepG2-A16-CD81EGFP cells = settings: for IC50: read-out: Tox_IC50, HepG2 cytotoxicity
[2] = sheet "2nd round", Broad compounds, dose response top concentration 10
[3] = 2nd round, maximal inhibition in dose series
[4] = first series, fraction of control
[5] = second series, fraction of control
[6] = sheet 2nd round, maximal inhibition in dose response

Structure (SMILES): C[C@H]1CCCCO[C@@H](CN(C)S(=O)(=O)c2ccc(F)cc2)[C@@H](C)CN([C@@H](C)CO)C(=O)c2cc(N(C)C)ccc2O1 [BRD-K31467596-001-01-7]
- normalised signal at concentration 0.000508053 (first series) [1]: 0.9636
- normalised signal at concentration 0.000508053 (second series) [1]: 1.196
- normalised signal at concentration 0.00152416 (first series) [1]: 0.9009
- normalised signal at concentration 0.00152416 (second series) [1]: 1.029
- normalised signal at concentration 0.00457247 (first series) [1]: 1.0859
- normalised signal at concentration 0.00457247 (second series) [1]: 1.054
- normalised signal at concentration 0.0137174 (first series) [1]: 0.8351
- normalised signal at concentration 0.0137174 (second series) [1]: 0.885
- normalised signal at concentration 0.0411523 (first series) [1]: 0.8724
- normalised signal at concentration 0.0411523 (second series) [1]: 1.048
- normalised signal at concentration 0.123457 (first series) [1]: 0.8924
- normalised signal at concentration 0.123457 (second series) [1]: 0.8988
- normalised signal at concentration 0.37037 (first series) [1]: 0.8075
- normalised signal at concentration 0.37037 (second series) [1]: 0.9035
- normalised signal at concentration 1.11111 (first series) [1]: 1.0319
- normalised signal at concentration 1.11111 (second series) [1]: 1.046
- normalised signal at concentration 3.33333 (first series) [1]: 0.9413
- normalised signal at concentration 3.33333 (second series) [1]: 0.9885
- normalised signal at concentration 10 (first series) [1]: 0.7997
- normalised signal at concentration 10 (second series) [1]: 0.6635
- IC50 [1, 2]: > 10 µM
- PbLuc_max_inhibition (%) ([1]; sheet "2nd round"): 34%
- IC50 (HepG2-A16-CD81EGFP cells; sheet "2nd round"): > 10 µM
- Tox_max_inhibition (%) (HepG2-A16-CD81EGFP cells; sheet "2nd round"): 19%

Structure (SMILES): C[C@@H]1CCCCO[C@H](CN(C)S(=O)(=O)c2ccc(F)cc2)[C@H](C)CN([C@H](C)CO)C(=O)c2cc(N(C)C)ccc2O1 [BRD-K77041516-001-01-2]
- normalised signal at concentration 0.000508053 (first series) [1]: 1.187
- normalised signal at concentration 0.000508053 (second series) [1]: 0.9225
- normalised signal at concentration 0.00152416 (first series) [1]: 0.8332
- normalised signal at concentration 0.00152416 (second series) [1]: 0.8694
- normalised signal at concentration 0.00457247 (first series) [1]: 0.9468
- normalised signal at concentration 0.00457247 (second series) [1]: 0.8206
- normalised signal at concentration 0.0137174 (first series) [1]: 0.8125
- normalised signal at concentration 0.0137174 (second series) [1]: 0.9272
- normalised signal at concentration 0.0411523 (first series) [1]: 0.9511
- normalised signal at concentration 0.0411523 (second series) [1]: 0.9568
- normalised signal at concentration 0.123457 (first series) [1]: 1.006
- normalised signal at concentration 0.123457 (second series) [1]: 0.7947
- normalised signal at concentration 0.37037 (first series) [1]: 0.8766
- normalised signal at concentration 0.37037 (second series) [1]: 1.201
- normalised signal at concentration 1.11111 (first series) [1]: 1.15
- normalised signal at concentration 1.11111 (second series) [1]: 1.082
- normalised signal at concentration 3.33333 (first series) [1]: 0.9005
- normalised signal at concentration 3.33333 (second series) [1]: 1.135
- normalised signal at concentration 10 (first series) [1]: 0.8572
- normalised signal at concentration 10 (second series) [1]: 0.9617
- IC50 [1, 2]: > 10 µM
- PbLuc_max_inhibition (%) ([1]; sheet "2nd round"): 21%
- IC50 (HepG2-A16-CD81EGFP cells; sheet "2nd round"): > 10 µM
- Tox_max_inhibition (%) (HepG2-A16-CD81EGFP cells; sheet "2nd round"): 4.38%

Structure (SMILES): C[C@@H]1CN([C@H](C)CO)C(=O)c2ccccc2-c2ccccc2CO[C@H]1CN(C)C(=O)[C@H](Cc1ccccc1)N(C)C [BRD-K75961033-001-01-7]
- PbLuc_max_inhibition (%) [1, 3]: 45%
- normalized signal at 0.000508053 (first series) ([1]; concentration 0.000508053, first replicate series, fraction of control): 1.06
- normalized signal at 0.000508053 (second series) ([1]; concentration 0.000508053, second replicate series, fraction of control): 0.8091
- normalized signal at 0.00152416 (first series) ([1]; concentration 0.00152416, first replicate series, fraction of control): 0.9571
- normalized signal at 0.00152416 (second series) ([1]; concentration 0.00152416, second replicate series, fraction of control): 0.6896
- normalized signal at 0.00457247 (first series) ([1]; concentration 0.00457247, first replicate series, fraction of control): 0.9675
- normalized signal at 0.00457247 (second series) ([1]; concentration 0.00457247, second replicate series, fraction of control): 0.699
- normalized signal at 0.0137174 (first series) ([1]; concentration 0.0137174, first replicate series, fraction of control): 1.117
- normalized signal at 0.0137174 (second series) ([1]; concentration 0.0137174, second replicate series, fraction of control): 0.795
- normalized signal at 0.0411523 (first series) ([1]; concentration 0.0411523, first replicate series, fraction of control): 0.9735
- normalized signal at 0.0411523 (second series) ([1]; concentration 0.0411523, second replicate series, fraction of control): 0.8267
- normalized signal at 0.123457 (first series) ([1]; concentration 0.123457, first replicate series, fraction of control): 0.9249
- normalized signal at 0.123457 (second series) ([1]; concentration 0.123457, second replicate series, fraction of control): 0.6648
- normalized signal at 0.37037 (first series) ([1]; concentration 0.37037, first replicate series, fraction of control): 0.9974
- normalized signal at 0.37037 (second series) ([1]; concentration 0.37037, second replicate series, fraction of control): 0.9501
- normalized signal at 1.11111 (first series) ([1]; concentration 1.11111, first replicate series, fraction of control): 1.014
- normalized signal at 1.11111 (second series) ([1]; concentration 1.11111, second replicate series, fraction of control): 0.8135
- normalized signal at 3.33333 (first series) ([1]; concentration 3.33333, first replicate series, fraction of control): 0.9327
- normalized signal at 3.33333 (second series) ([1]; concentration 3.33333, second replicate series, fraction of control): 0.5506
- normalized signal at 10 (first series) ([1]; concentration 10, first replicate series, fraction of control): 0.7489
- normalized signal at 10 (second series) ([1]; concentration 10, second replicate series, fraction of control): 0.6892
- IC50 ([1]; 2nd round, Broad DOS compounds, unit not printed (dose series head 10 to 0.000508053)): > 10 µM
- Tox_max_inhibition (%) (HepG2-A16-CD81EGFP cells; [3]): 5.71%
- IC50 (HepG2-A16-CD81EGFP cells; 2nd round, unit inferred): > 10 µM

Structure (SMILES): C[C@@H]1CCCCO[C@@H](CN(C)S(=O)(=O)c2ccc(F)cc2)[C@@H](C)CN([C@@H](C)CO)C(=O)c2cc(N(C)C)ccc2O1 [BRD-K74261250-001-01-9]
- normalized signal at concentration 10 ([1]; first series of dose-response columns, fraction of control): 0.8467
- normalized signal at concentration 0.000508053 [1, 4]: 1.172
- normalized signal at concentration 0.00152416 [1, 4]: 0.9183
- normalized signal at concentration 0.00457247 [1, 4]: 0.77
- normalized signal at concentration 0.0137174 [1, 4]: 1.0389
- normalized signal at concentration 0.0411523 [1, 4]: 0.8236
- normalized signal at concentration 0.123457 [1, 4]: 0.9547
- normalized signal at concentration 0.37037 [1, 4]: 1.005
- normalized signal at concentration 1.11111 [1, 4]: 0.9156
- normalized signal at concentration 3.33333 [1, 4]: 1.13
- IC50 ([1]; sheet 2nd round, Broad compounds, dose response): > 10 µM
- normalized signal at concentration 10 ([1]; second series of dose-response columns, fraction of control): 0.7483
- normalized signal at concentration 0.000508053 [1, 5]: 1.01
- normalized signal at concentration 0.00152416 [1, 5]: 0.834
- normalized signal at concentration 0.00457247 [1, 5]: 1.154
- normalized signal at concentration 0.0137174 [1, 5]: 0.7879
- normalized signal at concentration 0.0411523 [1, 5]: 0.9255
- normalized signal at concentration 0.123457 [1, 5]: 1.124
- normalized signal at concentration 0.37037 [1, 5]: 0.8451
- normalized signal at concentration 1.11111 [1, 5]: 0.9426
- normalized signal at concentration 3.33333 [1, 5]: 1.1
- PbLuc_max_inhibition (%) [1, 6]: 25%
- IC50 (HepG2-A16-CD81EGFP cells; sheet 2nd round): > 10 µM
- Tox_max_inhibition (%) (HepG2-A16-CD81EGFP cells; [6]): 6.44%
